Key:
MTH1 = MTH1 (Homo sapiens, UniProt P36639); test: MTH1 enzymatic assay (malachite green, coupled to pyrophosphatase); type: biochemical; details: dGTP 100 μM, MTH1 6 nM; 96- or 384-well format; read-out: IC50
activated T-lymphocytes = test: Cellular assay, primary T-lymphocytes activated with CD3/CD28 Dynabeads; type: cell-based, human
Method: (§1) Cellular Assay and IC50 Value Determination
(§2) Primary T-lymphocytes are isolated from donated human blood and thereafter activated with CD3/CD28 Dynabeads. The T-lymphocytes are treated with an MTH1 inhibitor, positive control or vehicle for 24-96 hrs. Cell viability can be measured by using standard assays, such as for instance a resazurin assay. In some experiments, the cells are stained with Cell Trace Violet at the start of the culture. The dye is diluted as the cells divide and gives a measurement of cell proliferation (see FIG. 1 for an example).

[1] = test system: unactivated T-lymphocytes; test: Cellular assay, unactivated primary T-lymphocytes; type: cell-based, human
Method: as §1
as §2, with “The” for “Primary T-lymphocytes are isolated from donated human blood and thereafter activated with CD3/CD28 Dynabeads. The”

SMILES | IC50 (MTH1) [nM] | effect on activated T-lymphocytes (FIG. 1) (activated T-lymphocytes) | effect on unactivated T-lymphocytes (FIG. 1) [1]
Cc1c(Cl)cccc1-c1cc(NCCc2ccc(S(N)(=O)=O)cc2)nc(N)n1 [Example 297, 4-(2-{[2-amino-6-(3-chloro-2-methylphenyl)pyrimidin-4-yl]amino}ethyl)benzene-1-sulfonamide] | < 200 | selectively kills | unaffected
Cc1c(Cl)cccc1-c1nc(N)nc2c1CCN2 [Example 742, 4-(3-chloro-2-methylphenyl)-5H,6H,7H-pyrrolo[2,3-d]pyrimidin-2-amine] | < 200 |  | 
Cc1c(Cl)cccc1-c1nc(N)nc2c1C[C@@H](C)N2 [Example 743, (6R)-4-(3-Chloro-2-methylphenyl)-6-methyl-5H,6H,7H-pyrrolo[2,3-d]pyrimidin-2-amine] | < 200 |  | 

Further lines, with some results ahead:

IC50 (MTH1) [nM] | SMILES | effect on activated T-lymphocytes (FIG. 1) (activated T-lymphocytes) | effect on unactivated T-lymphocytes (FIG. 1) [1]
< 200 | Cc1c(Cl)cccc1-c1cc(NCCc2cnccn2)nc(N)n1 [Example 735, 6-(3-chloro-2-methyl-phenyl)-N4-(2-pyrazin-2-ylethyl)pyrimidine-2,4-diamine] |  | 
< 200 | Cc1c(Cl)cccc1-c1cc(NCCc2ccc(Br)cc2)nc(N)n1 [Example 736, N4-[2-(4-bromophenyl)ethyl]-6-(3-chloro-2-methylphenyl)pyrimidine-2,4-diamine] |  | 
< 200 | Cc1c(Cl)cccc1-c1cc(NCCOc2ccc(Cl)cn2)nc(N)n1 [Example 746, 6-(3-chloro-2-methylphenyl)-N4-{2-[(5-chloropyridin-2-yl)oxy]ethyl}pyrimidine-2,4-diamine] |  | 
< 200 | Cc1c(Cl)cccc1-c1cc(NCCOc2ccc(C#N)cc2)nc(N)n1 [Example 747, 4-(2-{[2-amino-6-(3-chloro-2-methylphenyl)pyrimidin-4-yl]amino}ethoxy)benzonitrile] |  | 
